Structures are written as SMILES. Values after ≈ are worked out from the molar mass of the structure shown. Where two headings read alike, the source gives them in different places.

As usually defined, the MIC is the lowest concentration that inhibits growth of the organism. The MBC is the smallest concentration meeting the test's criterion for killing.

Data set [1] has as its system Methicillin resistant S. aureus IBRS MRSA 011. The experiment in a line: Antimicrobial microdilution assay (MIC/MBC). The following applies: Staphylococcus aureus, MRSA. Type of data set: cell-based, Staphylococcus aureus. An outline of the steps:
(§1)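 Polyphenols 0.0039–1 mg/mL, stocks in 30% ethanol; inoculum 0.5 McFarland diluted twenty-fold, mixed 1:10; 24 h, 37 °C. MIC = no visible growth (binocular microscope). Streptomycin positive control, ethanol negative control; triplicate.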
For orientation: In broth dilution the organism is exposed to a series of concentrations in liquid medium.

Data set [2] concerns P. aeruginosa IBRS P001. The experiment in a line: Antimicrobial microdilution assay (MIC/MBC). The data set is classed as cell-based, Pseudomonas aeruginosa. The conditions noted are these: Pseudomonas aeruginosa, IBRSP001; for MIC: read-out: MIC. An outline of the steps: as §1
For data set [3], the system named is P. aeruginosa MMA83. The data set is described as follows: Antimicrobial microdilution assay (MIC/MBC). Type of data set: cell-based, Pseudomonas aeruginosa. The conditions noted are these: Pseudomonas aeruginosa, MMA83. A digest of the protocol: as §1
Data set [4] deals with A. baumannii 6077/12. The data set is described as follows: Antimicrobial microdilution assay (MIC/MBC). Type of data set: cell-based, Acinetobacter baumannii. The conditions noted are these: Acinetobacter baumannii, 6077/12. A digest of the protocol:
as §1

Data set [5] relates to A. baumannii S2/2. The experiment in a line: Antimicrobial microdilution assay (MIC/MBC). The data set is classed as cell-based, Acinetobacter baumannii. The following applies: Acinetobacter baumannii, S2/2. An outline of the steps: as §1
Data set [6] concerns A. xylosoxidans 37F. The experiment in a line: Antimicrobial microdilution assay (MIC/MBC). The data set is classed as cell-based, Achromobacter xylosoxidans. The following applies: Achromobacter xylosoxidans, 37F. A digest of the protocol: as §1
In data set [7] the test system is MRSA IBRS MRSA 011. Type of data set: cell-based, Staphylococcus aureus. As to the method:
For the catheter biofilm eradication assay, P. aeruginosa and MRSA were incubated in TSB with 2% glucose with 1 cm long catheters in 24-well plates at 37 °C for 24 h. […] Subsequently, the catheters were washed and treated, as described above.

Data set [8] concerns 24 h old P. aeruginosa IBRS P001 biofilms. The experiment in a line: Biofilm eradication, crystal violet assay (biofilm mass). The data set is classed as cell-based, Pseudomonas aeruginosa. The conditions noted are these: 4 MBC—4 mg/mL, 24 h treatment. As to the method: After incubation, each well was washed twice with sterile PBS (phosphate-buffered saline, pH 7.4) and fixed with methanol for 10 min. After removal of methanol the plate was air-dried. The biofilm was stained with 0.1% crystal violet (Bio-Merieux, Marcy l’Etoile, France) for 30 min. The plate was washed with water, air dried, and the stain was dissolved with 200 μL of 96% ethanol (Zorka, Sabac, Serbia). The absorbance was read at 620 nm on a Multiskan™ FC microplate photometer (Thermo Scientific™, Waltham, MA, USA). The results are presented as biofilm forming capacity (%) compared to control.
(§2) The bacterial cells were incubated in TSB enriched with 2% glucose in 96-well plates (Sarstedt, Germany) with adhesive bottom at 37 °C for 24 h. After incubation, wells were washed with PBS, and rutin (MBC–4 MBC) in TSB with 2% glucose was added. Incubation continued at 37 °C for another 24 h. The planktonic cells were removed.
(§3) The assays continued as described above for the crystal violet antibiofilm assay for the measurement of biofilm mass, biofilm MTT assay for the interference with cell viability, Congo red binding assay for estimation of exopolysaccharide production, and eDNA assay.

For data set [9] the test system is unchanged. The experiment in a line: Biofilm eradication, Congo red binding assay (exopolysaccharide). Type of data set: cell-based, Pseudomonas aeruginosa. As to the method:
The estimation of rutin’s impact on biofilm exopolysaccharide production (EPS) was determined by the Congo red binding assay. P. aeruginosa IBRS P001 biofilm EPS production was determined as previously described. […] The planktonic cells were removed, and the adherent cells were washed with PBS. Wells were stained with 1% (w/v) Congo red (SigmaAldrich, Germany) in the dark for 30 min. Wells were aspirated and subsequently the bound dye was solubilized with 200 μL DMSO. Absorbance at 490 nm was measured in a microtiter plate reader Multiskan™ FC microplate photometer (Thermo Scientific™, United States) and the inhibition percentage of EPS production was calculated according to the following equation:%Inhibition = [(A490control − A490sample)/A490control] × 100
as §2, §3

Data set [10] deals with P. aeruginosa IBRS P001. The experiment in a line: Membrane permeability assay (nucleotide and protein leakage). Type of data set: cell-based, Pseudomonas aeruginosa. The conditions noted are these: rutin MIC; absorbance of released nucleic acids (260 nm) and proteins (280 nm) increased after 60 min. How it is done: The effect of rutin on membrane permeability (nucleotide and protein leakage) was evaluated as described earlier with some modifications. The culture of P. aeruginosa IBRS P001 and MRSA IBRS MRSA 011 was incubated overnight at 37 °C, washed, and suspended in 10 mM PBS in order to achieve the final density of 10^8 CFU/mL. Bacteria were incubated with rutin at a concentration equal to MIC for time intervals 0, 30, 60, and 90 min. Bacteria incubated with PBS were used as control. After incubation the mixture was filtered through a 0.22 μm pore size filter to remove […]. The optical density of the filtrate was measured at 260 and 280 nm with an Agilent/HP 8453 UV-Visible Spectrophotometer (Agilent Technologies, Santa Clara, CA, USA) at room temperature (25 °C).

[11] abbreviates: subcultivation, 24 h at 37 °C, read-out: MBC.

On to `C[C@@H]1O[C@@H](OC[C@H]2O[C@@H](Oc3c(-c4ccc(O)c(O)c4)oc4cc(O)cc(O)c4c3=O)[C@H](O)[C@@H](O)[C@@H]2O)[C@H](O)[C@H](O)[C@H]1O` [Rutin, rutin], for which the MIC in data set [1] (37 °C, 24 h, read-out: MIC) was found to be 500 µg/mL (≈ 819 µM); in [2] (37 °C, 24 h) it was 500 µg/mL (≈ 819 µM); in data set [2] (restated in the discussion) it was 500 µg/mL (≈ 819 µM); in data set [3] (37 °C, 24 h, read-out: MIC) it was 500 µg/mL (≈ 819 µM); in data set [4] (37 °C, 24 h, read-out: MIC), 500 µg/mL (≈ 819 µM); in [5] (37 °C, 24 h, read-out: MIC), 500 µg/mL (≈ 819 µM). The MIC in data set [6] (37 °C, 24 h, read-out: MIC) was 500 µg/mL (≈ 819 µM). Besides, the MBC in data set [1] (setting [11]) was 1000 µg/mL (≈ 1640 µM); in data set [2] (setting [11]) it was 1000 µg/mL (≈ 1640 µM); in data set [3] (setting [11]), 500 µg/mL (≈ 819 µM); in data set [4] (setting [11]), 500 µg/mL (≈ 819 µM); in [5] (setting [11]), 500 µg/mL (≈ 819 µM); in [6] (setting [11]), 1000 µg/mL (≈ 1640 µM). For the same molecule, in data set [7] (2 MBC, 24 h old biofilm), the catheter biofilm eradicated is 74.2%. In addition, the “biofilm cells remained viable after the treatment” value in data set [7] (24 h old catheter biofilm, concentration not printed (MBC-4MBC tested, probably 4 MBC)) turned out to be 9.6%. For the same molecule, the “inhibition of pre-formed biofilm biomass” value in [8] was found to be 35%. The “exopolysaccharide production decreased to” value in data set [9] (2 MBC) was 65%; in data set [9] (4 MBC) it was 69%; in data set [9] (MBC), 89%. Besides, in data set [10], the “cell membrane integrity, in words” value is reported as “obstructed P. aeruginosa IBRS P001 cell membrane integrity”.

(Values after article PMC8952364, “Polyphenols as Inhibitors of Antibiotic Resistant Bacteria—Mechanisms Underlying Rutin Interference with Bacterial Virulence” (Pharmaceuticals, 2022).)
